Active and inactive are the calls of the source.
Experiments:
[1] = target: Potassium voltage-gated channel subfamily KQT member 2 (Rattus norvegicus, UniProt O88943, W236L); test: potentiation of rat KCNQ2 current – cell-based, automated electrophysiology, mechanism study for KCNQ2 potentiator project, dose response (AID 2603); format: functional
[2] = target: T1, Protein RecA (Mycobacterium tuberculosis, UniProt P9WHJ3); test: Fluorescence Cell-Free Homogeneous Dose Retest to Identify Inhibitors of RecA-Intein Splicing Activity. [Related pubchem assays (depositor defined):AID2097, AID2223, AID489010, AID492950]; format: functional
T1 sequence (P9WHJ3 whole entry): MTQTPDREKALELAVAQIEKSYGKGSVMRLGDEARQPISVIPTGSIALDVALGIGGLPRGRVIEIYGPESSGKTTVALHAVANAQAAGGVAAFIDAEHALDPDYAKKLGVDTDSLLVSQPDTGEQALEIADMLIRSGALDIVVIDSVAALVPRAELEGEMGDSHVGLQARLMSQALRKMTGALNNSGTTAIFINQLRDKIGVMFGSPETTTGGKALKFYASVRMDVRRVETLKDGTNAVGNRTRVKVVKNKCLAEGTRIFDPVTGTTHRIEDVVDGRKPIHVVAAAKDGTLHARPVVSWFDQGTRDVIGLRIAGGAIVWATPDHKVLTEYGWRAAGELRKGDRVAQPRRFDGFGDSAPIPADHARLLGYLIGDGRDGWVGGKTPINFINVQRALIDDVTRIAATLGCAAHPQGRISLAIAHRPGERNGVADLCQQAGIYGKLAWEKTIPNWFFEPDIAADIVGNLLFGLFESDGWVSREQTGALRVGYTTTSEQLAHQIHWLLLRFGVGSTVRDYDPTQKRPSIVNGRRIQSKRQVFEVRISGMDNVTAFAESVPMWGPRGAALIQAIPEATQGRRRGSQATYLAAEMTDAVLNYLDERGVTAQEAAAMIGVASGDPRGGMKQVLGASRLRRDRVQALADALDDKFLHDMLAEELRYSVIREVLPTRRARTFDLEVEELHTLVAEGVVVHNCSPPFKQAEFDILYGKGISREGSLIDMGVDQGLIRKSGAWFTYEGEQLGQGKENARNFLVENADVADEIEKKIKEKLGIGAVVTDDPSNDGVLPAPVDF

[3] = target: T2, Replicative DNA helicase DnaB (Mycobacterium tuberculosis, UniProt P9WMR3); test: DnaB intein splicing inhibitors, dose response, biochemical, cell-free fluorescence (AID 449749); format: functional
T2 sequence (P9WMR3 whole entry): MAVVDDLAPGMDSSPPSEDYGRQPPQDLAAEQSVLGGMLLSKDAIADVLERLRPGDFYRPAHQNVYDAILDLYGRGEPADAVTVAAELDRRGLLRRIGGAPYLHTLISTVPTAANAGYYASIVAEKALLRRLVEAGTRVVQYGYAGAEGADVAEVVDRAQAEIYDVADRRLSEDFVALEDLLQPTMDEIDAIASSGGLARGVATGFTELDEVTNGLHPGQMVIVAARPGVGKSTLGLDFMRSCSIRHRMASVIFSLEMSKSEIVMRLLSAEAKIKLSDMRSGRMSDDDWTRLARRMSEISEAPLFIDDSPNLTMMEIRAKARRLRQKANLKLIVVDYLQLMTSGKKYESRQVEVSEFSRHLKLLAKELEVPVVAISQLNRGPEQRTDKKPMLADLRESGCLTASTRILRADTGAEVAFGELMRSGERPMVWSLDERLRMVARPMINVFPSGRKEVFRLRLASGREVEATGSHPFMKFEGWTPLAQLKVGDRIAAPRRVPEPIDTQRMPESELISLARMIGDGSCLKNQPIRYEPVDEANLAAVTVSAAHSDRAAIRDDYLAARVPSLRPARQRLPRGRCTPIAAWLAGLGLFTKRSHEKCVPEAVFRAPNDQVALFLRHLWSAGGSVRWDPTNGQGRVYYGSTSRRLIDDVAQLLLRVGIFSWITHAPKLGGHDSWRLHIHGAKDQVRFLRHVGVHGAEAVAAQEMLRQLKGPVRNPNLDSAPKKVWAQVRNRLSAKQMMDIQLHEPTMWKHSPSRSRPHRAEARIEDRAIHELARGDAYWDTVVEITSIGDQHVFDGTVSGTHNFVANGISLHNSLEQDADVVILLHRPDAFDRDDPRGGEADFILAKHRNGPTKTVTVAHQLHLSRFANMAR

[4] = OVCAR-3 cell viability loss – plate reader, dry powder samples, PAX8 inhibitor project, dose response (AID 743044); format: functional, cell-based
[5] = OVCAR8 cell viability loss – plate reader, dry powder samples, PAX8 project, dose response (AID 743197); format: functional, cell-based; details: OVCAR-8
[6] = target: Paired box protein Pax-8 (Homo sapiens, UniProt Q06710); test: PAX8 transcriptional activity inhibition in RMG-I – RMG-I cells, luciferase, cherry-pick, dose response (AID 687027); format: functional, cell-based;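 further: luciferase reporter driven by Pax8 target thyroperoxidase promoter measured by SteadyGlo luminescence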
[7] = test system: INS1; test: INS-1E survival protection against cytokine death – cell-based, luminescence, retest, dose response (AID 449756); format: functional; details: Rattus norvegicus;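 further: cell death triggered by IL-1 beta plus TNF-alpha plus IFN-gamma mixture; protective hits raise ATP signal compared with cytokine alone wells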
[8] = target: T3, COUP transcription factor 2 (Homo sapiens, UniProt P24468); test: Luminescence-based cell-based high throughput dose response assay to identify inhibitors of COUP-TFII (NR2F2).; format: functional;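 further: HEK293 cells transiently cotransfected with COUP-TFII expression vector and reporter; luciferase reporter luminescence driven by COUP-TFII from the pX2-168 reporter plasmid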
T3 sequence (P24468 whole entry): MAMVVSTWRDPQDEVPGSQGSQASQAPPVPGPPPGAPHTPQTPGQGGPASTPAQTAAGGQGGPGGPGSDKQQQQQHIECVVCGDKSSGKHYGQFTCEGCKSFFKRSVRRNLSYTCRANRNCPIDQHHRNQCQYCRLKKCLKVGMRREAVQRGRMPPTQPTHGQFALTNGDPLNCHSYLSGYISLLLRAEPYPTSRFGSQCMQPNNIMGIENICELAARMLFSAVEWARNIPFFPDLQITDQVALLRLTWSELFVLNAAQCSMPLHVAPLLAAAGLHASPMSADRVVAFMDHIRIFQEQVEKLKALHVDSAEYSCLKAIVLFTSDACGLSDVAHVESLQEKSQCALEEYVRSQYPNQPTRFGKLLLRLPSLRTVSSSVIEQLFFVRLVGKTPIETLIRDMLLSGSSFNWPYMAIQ

[9] = target: Cytochrome P450 2C9 (Homo sapiens, UniProt P11712); details: Potency
[10] = target: Prothrombin (Homo sapiens, UniProt P00734); test: Thrombin 1536 HTS Dose Response Confirmation. [Related pubchem assays: 1046 (Thrombin 1536 HTS; hits were confirmed in this assay)]; format: functional
[11] = target: T4, Coagulation factor XII (Homo sapiens, UniProt P00748); format: functional;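 further: activated factor XIIa alpha cleaving a fluorogenic AMC peptide substrate; inhibitor potency from loss of enzyme activity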
T4 sequence (P00748 whole entry): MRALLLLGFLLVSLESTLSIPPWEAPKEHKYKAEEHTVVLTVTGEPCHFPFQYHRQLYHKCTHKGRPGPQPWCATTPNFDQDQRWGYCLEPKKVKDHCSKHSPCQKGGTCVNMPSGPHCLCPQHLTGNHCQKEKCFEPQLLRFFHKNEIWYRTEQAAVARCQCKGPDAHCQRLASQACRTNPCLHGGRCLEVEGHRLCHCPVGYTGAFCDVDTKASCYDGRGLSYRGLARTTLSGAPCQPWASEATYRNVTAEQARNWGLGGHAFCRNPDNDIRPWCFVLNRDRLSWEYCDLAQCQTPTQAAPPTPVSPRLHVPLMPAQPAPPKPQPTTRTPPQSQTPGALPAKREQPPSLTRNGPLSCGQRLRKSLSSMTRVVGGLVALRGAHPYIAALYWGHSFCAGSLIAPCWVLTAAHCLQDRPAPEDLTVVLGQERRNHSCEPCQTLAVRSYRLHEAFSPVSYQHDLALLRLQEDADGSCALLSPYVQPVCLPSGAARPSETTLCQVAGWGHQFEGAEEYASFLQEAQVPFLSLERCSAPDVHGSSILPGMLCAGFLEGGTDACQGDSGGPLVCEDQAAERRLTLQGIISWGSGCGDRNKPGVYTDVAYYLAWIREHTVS

[12] = growth inhibition of yeast DHODH-expressing 3D7 parasites – SYBR Green, dry powder samples, dose response (AID 1159570); format: functional, cell-based;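 further: parasite growth measured after 72 hours of compound exposure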
[13] = growth inhibition of PfATP4-mutant resistant parasites – NITD609-resistant line, SYBR Green, dry powder, dose response (AID 1159571); format: functional, cell-based;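 further: parasites synchronized at ring stage by sorbitol before testing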
[14] = toxicity to human HepG2 hepatoma cells – cell-based, plate reader, dry powder samples, cytotoxicity control, dose response (AID 1159569); format: functional;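 further: inhibitor potency with signal falling toward the positive control level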
[15] = P. falciparum Dd2 growth inhibitors, dose response, SYBR Green, cherry-picked samples (AID 1159567); format: functional, cell-based
[16] = Dd2 malaria parasite growth inhibition potency – SYBR Green, dry powder samples, dose response (AID 1159566); format: functional, cell-based;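 further: potency for growth inhibition with lower SYBR green DNA signal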
[17] = cells; format: functional, cell-based; details: HEK-CNG
[18] = target: T5, Galanin receptor type 3 (Homo sapiens, UniProt O60755); test: Fluorescence-based cell-based primary high throughput dose response assay to identify antagonists of the Galanin Receptor 3 (GalR3).; format: functional
T5 sequence (O60755 whole entry): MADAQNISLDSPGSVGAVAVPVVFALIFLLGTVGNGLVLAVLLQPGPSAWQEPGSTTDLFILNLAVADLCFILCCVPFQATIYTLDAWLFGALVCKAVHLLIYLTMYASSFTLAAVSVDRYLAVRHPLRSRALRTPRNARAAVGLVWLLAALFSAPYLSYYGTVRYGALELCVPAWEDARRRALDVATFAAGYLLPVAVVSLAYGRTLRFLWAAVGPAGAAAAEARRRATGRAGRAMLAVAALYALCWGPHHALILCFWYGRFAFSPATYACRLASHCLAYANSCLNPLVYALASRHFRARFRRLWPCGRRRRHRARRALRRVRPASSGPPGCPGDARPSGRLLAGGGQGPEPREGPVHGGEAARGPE

[19] = viability loss in Vero cells – cytotoxicity control for Vif-APOBEC3G degradation inhibitor project, dose response (AID 1117358); format: functional; details: Vero
[20] = target: Large T antigen (Simian virus 40, UniProt P03070); format: functional, Betapolyomavirus macacae;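 further: Confirmatory-stage PubChem screen for compounds that inhibit SV40 T antigen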
[21] = reduced cellular PGC1a acetyl-lysine signal – cell-based, cherry-picked samples, dose response (AID 720514); format: functional;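 further: potency may reflect raised or lowered acetylation signal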
[22] = target: T6, fMet-Leu-Phe receptor (Homo sapiens, UniProt P21462); test: formyl peptide receptor binders – dose response (AID 519); format: functional
T6 sequence (P21462 whole entry): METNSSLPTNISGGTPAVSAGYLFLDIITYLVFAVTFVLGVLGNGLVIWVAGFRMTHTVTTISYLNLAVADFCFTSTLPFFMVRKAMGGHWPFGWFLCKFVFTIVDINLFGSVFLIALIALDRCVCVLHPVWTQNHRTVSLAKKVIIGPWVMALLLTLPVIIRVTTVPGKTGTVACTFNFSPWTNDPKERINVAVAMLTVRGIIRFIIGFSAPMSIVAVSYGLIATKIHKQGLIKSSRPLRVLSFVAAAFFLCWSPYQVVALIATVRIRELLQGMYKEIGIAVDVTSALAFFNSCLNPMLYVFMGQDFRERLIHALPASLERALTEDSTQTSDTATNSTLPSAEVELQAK

[23] = target: Cytochrome P450 3A4 (Homo sapiens, UniProt P08684);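 further: CYP3A4 tested as one member of a cytochrome P450 panel screen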
[24] = Luminescence Cell-Based Dose Retest to Confirm Inhibitors of Cancer Stem Cells. [Related pubchem assays (depositor defined):AID2717, AID2721]; format: functional; details: Homo sapiens

Chain of Paired box protein Pax-8 (Q06710 whole entry): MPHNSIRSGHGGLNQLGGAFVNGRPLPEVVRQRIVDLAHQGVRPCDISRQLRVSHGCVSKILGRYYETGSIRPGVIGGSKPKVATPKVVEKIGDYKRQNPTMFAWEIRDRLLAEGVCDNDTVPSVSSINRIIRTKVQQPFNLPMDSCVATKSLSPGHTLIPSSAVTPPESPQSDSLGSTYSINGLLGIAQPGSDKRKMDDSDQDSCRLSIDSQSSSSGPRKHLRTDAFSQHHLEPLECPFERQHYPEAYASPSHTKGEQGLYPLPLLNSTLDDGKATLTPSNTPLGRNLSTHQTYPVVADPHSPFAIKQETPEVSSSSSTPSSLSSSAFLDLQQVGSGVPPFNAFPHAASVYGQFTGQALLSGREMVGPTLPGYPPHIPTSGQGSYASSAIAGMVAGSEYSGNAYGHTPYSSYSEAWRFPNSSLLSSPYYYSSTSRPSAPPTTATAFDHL
Chain of Cytochrome P450 2C9 (P11712 whole entry): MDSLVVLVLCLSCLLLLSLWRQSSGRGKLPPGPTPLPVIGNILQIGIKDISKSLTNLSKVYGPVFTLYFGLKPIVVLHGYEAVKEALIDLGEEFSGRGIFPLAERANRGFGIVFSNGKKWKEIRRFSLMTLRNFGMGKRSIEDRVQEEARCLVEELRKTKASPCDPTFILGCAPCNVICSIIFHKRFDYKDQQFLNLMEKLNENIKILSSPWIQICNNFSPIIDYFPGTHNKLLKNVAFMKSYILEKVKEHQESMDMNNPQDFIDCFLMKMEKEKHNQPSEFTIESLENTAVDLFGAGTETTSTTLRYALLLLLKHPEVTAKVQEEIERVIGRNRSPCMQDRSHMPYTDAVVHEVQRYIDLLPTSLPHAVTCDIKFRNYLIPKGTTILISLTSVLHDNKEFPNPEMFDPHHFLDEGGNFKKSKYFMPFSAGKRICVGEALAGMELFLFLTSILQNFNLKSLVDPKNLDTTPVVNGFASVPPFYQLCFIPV
Chain of Potassium voltage-gated channel subfamily KQT member 2 (O88943 whole entry W236L): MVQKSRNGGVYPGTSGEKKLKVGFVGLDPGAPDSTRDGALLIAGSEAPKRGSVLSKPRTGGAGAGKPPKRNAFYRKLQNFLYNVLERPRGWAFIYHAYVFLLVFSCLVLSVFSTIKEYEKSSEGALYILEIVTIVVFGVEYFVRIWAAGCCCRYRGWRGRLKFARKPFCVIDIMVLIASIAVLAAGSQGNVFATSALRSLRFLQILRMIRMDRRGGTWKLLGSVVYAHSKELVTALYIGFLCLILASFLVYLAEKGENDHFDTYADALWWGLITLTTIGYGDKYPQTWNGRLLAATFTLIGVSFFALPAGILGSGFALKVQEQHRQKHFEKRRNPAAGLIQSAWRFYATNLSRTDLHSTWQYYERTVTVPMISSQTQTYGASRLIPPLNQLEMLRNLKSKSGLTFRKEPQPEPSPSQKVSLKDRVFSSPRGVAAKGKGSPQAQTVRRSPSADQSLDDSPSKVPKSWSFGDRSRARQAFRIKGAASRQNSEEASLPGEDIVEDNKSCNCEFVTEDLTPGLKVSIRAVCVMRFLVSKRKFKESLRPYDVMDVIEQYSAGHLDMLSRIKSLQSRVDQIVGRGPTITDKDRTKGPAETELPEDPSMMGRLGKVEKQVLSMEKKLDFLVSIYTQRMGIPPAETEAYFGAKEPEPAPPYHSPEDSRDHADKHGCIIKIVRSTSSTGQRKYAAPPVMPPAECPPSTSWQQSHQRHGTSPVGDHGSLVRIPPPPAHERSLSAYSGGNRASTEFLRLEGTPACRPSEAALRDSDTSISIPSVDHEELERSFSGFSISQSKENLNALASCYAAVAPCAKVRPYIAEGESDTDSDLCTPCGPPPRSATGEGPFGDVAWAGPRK
Chain of Large T antigen (P03070 whole entry): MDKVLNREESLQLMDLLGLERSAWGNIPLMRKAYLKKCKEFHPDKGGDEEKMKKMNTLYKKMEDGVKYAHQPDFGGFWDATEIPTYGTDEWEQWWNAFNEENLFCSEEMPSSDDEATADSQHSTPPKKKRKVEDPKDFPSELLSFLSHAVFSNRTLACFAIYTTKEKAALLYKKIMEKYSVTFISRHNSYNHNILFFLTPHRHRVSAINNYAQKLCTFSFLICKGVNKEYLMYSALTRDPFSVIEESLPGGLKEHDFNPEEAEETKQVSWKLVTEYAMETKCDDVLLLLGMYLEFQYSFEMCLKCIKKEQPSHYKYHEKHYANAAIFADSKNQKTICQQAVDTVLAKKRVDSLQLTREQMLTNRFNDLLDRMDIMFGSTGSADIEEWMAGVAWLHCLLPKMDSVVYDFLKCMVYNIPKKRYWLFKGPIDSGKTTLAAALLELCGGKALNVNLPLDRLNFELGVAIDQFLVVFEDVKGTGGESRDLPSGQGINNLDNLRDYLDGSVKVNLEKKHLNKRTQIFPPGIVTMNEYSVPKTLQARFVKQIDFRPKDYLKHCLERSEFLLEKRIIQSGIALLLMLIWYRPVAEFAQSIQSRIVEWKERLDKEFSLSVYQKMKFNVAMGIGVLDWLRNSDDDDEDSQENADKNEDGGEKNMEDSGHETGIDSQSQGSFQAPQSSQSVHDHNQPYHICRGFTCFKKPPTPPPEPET
Chain of Cytochrome P450 3A4 (P08684 whole entry): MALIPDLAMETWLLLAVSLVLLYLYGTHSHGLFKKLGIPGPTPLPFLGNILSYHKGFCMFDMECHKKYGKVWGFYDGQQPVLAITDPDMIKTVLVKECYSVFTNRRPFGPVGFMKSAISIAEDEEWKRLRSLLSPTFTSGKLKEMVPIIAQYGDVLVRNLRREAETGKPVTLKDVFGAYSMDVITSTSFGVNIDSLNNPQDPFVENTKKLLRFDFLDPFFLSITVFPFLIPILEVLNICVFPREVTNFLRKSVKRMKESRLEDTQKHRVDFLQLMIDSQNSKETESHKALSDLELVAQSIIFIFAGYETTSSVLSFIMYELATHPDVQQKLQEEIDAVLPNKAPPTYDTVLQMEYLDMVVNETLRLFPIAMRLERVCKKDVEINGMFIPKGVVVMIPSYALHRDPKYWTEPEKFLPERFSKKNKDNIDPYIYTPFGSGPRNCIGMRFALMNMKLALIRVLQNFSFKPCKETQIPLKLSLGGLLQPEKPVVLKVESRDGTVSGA

Compound: CC(C)c1nnc(NC(=O)c2nc(S(=O)(=O)Cc3ccccc3F)ncc2Cl)s1
- EC50 [1]: 8.4 µM (active)
- EC50 [2]: 3.16 µM (active)
- AC50 [3]: 4.25 µM (active)

Compound: C[C@@H]1CCCCO[C@@H](CN(C)C(=O)Nc2cccc3ccccc23)[C@H](C)CN([C@H](C)CO)C(=O)c2cc(NS(=O)(=O)c3ccc(Cl)cc3)ccc2O1
- AC50 [4]: 36.6 µM (active)
- AC50 [5]: 32.4 µM (active)
- AC50 [6]: 5.29 µM (active)

Compound: O=C(NCCc1cn2ccccc2n1)c1cc(COc2ccc3ncccc3c2)on1
- AC50 [7]: 6 µM (active)
- IC50 [8]: 8.53 µM (active)

Compound: CCCCC#CC1C=CC(Oc2ccc(C(=O)OC)cc2)C(COC(=O)OCC)O1 (stereo not drawn)
- AC50 [9]: 3.16 µM (inconclusive)

Compound: CCc1nnc(NC(=O)CCN(c2ccc(C)cc2)S(=O)(=O)c2ccccc2)s1
- IC50 [10]: > 50 µM (not active)
- IC50 [11]: > 50 µM (inactive)

Compound: C[C@H](CO)N1C[C@H](C)[C@H](CN(C)Cc2ccc(C(F)(F)F)cc2)Oc2ccc(NS(=O)(=O)c3ccc(F)cc3)cc2CC1=O
- AC50 [5]: 52.5 µM (active)
- AC50 [6]: 11.4 µM (active)

Compound: COc1ccc(-c2ccccc2[C@H]2[C@@H](C#N)N(C(=O)NC3CCCC3)[C@H]2CO)cc1
- AC50 [12]: 1.21 µM (active)
- AC50 [13]: 1.72 µM (active)
- AC50 [14]: 65.8 µM (active)
- AC50 [15]: 1.9 µM (active)
- AC50 [16]: 1.27 µM (active)

Compound: C[C@H](CO)N1C[C@H](C)[C@@H](CN(C)Cc2ccc(Oc3ccccc3)cc2)OCc2ccccc2-c2c(n(C)c3ccccc23)C1=O
- AC50 [12]: 3.28 µM (active)
- AC50 [13]: 2.82 µM (active)
- AC50 [14]: 20.3 µM (active)
- AC50 [15]: 2.58 µM (active)
- AC50 [16]: 2.58 µM (active)
- AC50 [6]: 17.1 µM (active)

Compound: COc1ccc(C#CC2C=CC(Oc3cc(C)cc(C)c3)C(CO)O2)cc1 (stereo not drawn)
- AC50 [9]: 2 µM (inconclusive)

Compound: CC(=O)c1ccc(N2CCN(C(S)=Nc3ccc(Oc4ccccc4)cc3)CC2)cc1
- EC50 [17]: > 29.9 µM (inactive)
- IC50 [8]: 8.27 µM (active)
- IC50 [18]: 1.23 µM (active)

Compound: CCOc1cc(N2CCOCC2)c(OCC)cc1NS(=O)(=O)c1ccc(Cl)s1
- CC50 [19]: > 40 µM (active)
- IC50 [20]: 61.4 µM (active)

Compound: C=CS(=O)(=O)N(Cc1ccccc1Br)[C@H](CO)Cc1ccccc1
- AC50 [21]: 1.05 µM (active)

Compound: CCC(=O)N=C(Nc1cccc(OC)c1)Nc1nc(C)cc(C)n1
- IC50 [10]: 0.268 µM (active)

Compound: ClC1(Cl)CC1CSc1nc[nH]n1 (stereo not drawn)
- IC50 [10]: > 50 µM (not active)

Compound: CSCC[C@@H](Nc1nc(-c2ccccc2)nc2c1oc1ccccc12)C(=O)O
- CC50 [19]: > 40 µM (active)

Compound: CCC(NC(=O)Nc1cc(OC)c(OC)c(OC)c1)(C(F)(F)F)C(F)(F)F
- Ki [22]: > 66.7 µM (inactive)
- AC50 [23]: 15.8 µM (inconclusive)

Compound: O=C(Nc1ccc(N2CCN(Cc3ccccc3F)CC2)cc1)c1ccc([N+](=O)[O-])o1
- AC50 [21]: 1.58 µM (active)
- AC50 [24]: 1.29 µM (active)

Reference: ChEMBL document CHEMBL1201862, “PubChem BioAssay data set” (2004)
